Measured values: ChEMBL document CHEMBL1129222, “Anti-AIDS agents. 291. Anti-HIV activity of modified podophyllotoxin derivatives” (Bioorg Med Chem Lett, 1997)

Key:
[1] = Therapeutic index (IC50/EC50); type: cell-based; conditions: human, H9 cells; read-out: Therapeutic index
H9 [2] = test: Evaluation for anti-HIV activity using T cell line (H9).; type: functional, cell-based; conditions: Homo sapiens
H9 [3] = test: Cytotoxicity against H9 cell line; type: functional, cell-based; conditions: Homo sapiens
H9 [4] = test: The compound was evaluated for anti-HIV activity using T cell line (H9); No suppression; type: functional, cell-based, Homo sapiens
H9 [5] = test: The compound was evaluated for anti-HIV activity using T cell line (H9); conditions: Homo sapiens
H9 [6] = test: as above; conditions: Homo sapiens; remark: listed apart in the source
H9 [7] = test: The compound was evaluated for cytotoxicity against H9 cell line; Toxic; type: toxicity, cell-based, Homo sapiens

| EC50 (H9 [2]) [nM] | EC50 (H9 [4]) | EC50 (H9 [5]) [nM] | EC50 (H9 [6]) [nM] | SMILES | selectivity ratio [1] | IC50 (H9 [3]) [nM] | IC50 (H9 [7]) |
| --- | --- | --- | --- | --- | --- | --- | --- |
| < 1 | – | – | – | COc1cc2c(cc1OC)[C@@H](Nc1ccc(C#N)cc1)[C@H]1COC(=O)[C@@H]1[C@@H]2c1cc(OC)c(O)c(OC)c1 | > 141 | 141 | – |
| – | Not Active | – | – | COc1cc([C@@H]2c3cc(O)c(O)cc3[C@@H](O)[C@H]3COC(=O)[C@H]23)cc(OC)c1O | – | 45000 | – |
| 450 | – | – | – | COc1cc([C@@H]2c3cc4c(cc3[C@@H](Nc3ccc(F)cc3)[C@H]3COC(O)[C@H]23)OCO4)cc(OC)c1O (some centres not stated) | 4 | 1800 | – |
| 7000 | – | – | – | COc1cc([C@@H]2c3cc(O)c(O)cc3[C@@H](Nc3ccc(F)cc3)[C@H]3COC(=O)[C@H]23)cc(OC)c1O | 4.1 | 29000 | – |
| < 1 | – | – | – | CCOC(=O)c1ccc(N[C@@H]2c3cc(OC)c(OC)cc3[C@@H](c3cc(OC)c(O)c(OC)c3)[C@H]3C(=O)OC[C@@H]32)cc1 | > 120 | 120 | – |
| – | – | – | < 1 | COc1cc2c(cc1OC)[C@@H](Nc1ccc([N+](=O)[O-])cc1)[C@H]1COC(=O)[C@@H]1[C@@H]2c1cc(OC)c(O)c(OC)c1 | > 158 | 158 | – |
| 2200 | – | – | – | COc1cc2c(cc1OC)[C@@H](Nc1ccc(F)cc1)[C@H]1COC(=O)[C@@H]1[C@@H]2c1cc(OC)c(OC)c(OC)c1 | 4.4 | 9700 | – |
| – | Not Active | – | – | COc1cc([C@@H]2c3cc(O)c(O)cc3[C@H](O)[C@H]3COC(=O)[C@H]23)cc(OC)c1O | – | 1850 | – |

More lines, now with the values behind:

| SMILES | EC50 (H9 [2]) [nM] | EC50 (H9 [4]) | EC50 (H9 [5]) [nM] | EC50 (H9 [6]) [nM] | selectivity ratio [1] | IC50 (H9 [3]) [nM] | IC50 (H9 [7]) |
| --- | --- | --- | --- | --- | --- | --- | --- |
| CCS[C@@H]1c2cc3c(cc2[C@@H](c2cc(OC)c(OC)c(OC)c2)[C@H]2C(=O)OC[C@@H]21)OCO3 | 160 | – | – | – | 2 | 320 | – |
| COc1cc([C@@H]2c3cc4c(cc3[C@@H](Nc3ccc(F)cc3)[C@H]3COC(=O)[C@H]23)OCO4)cc(OC)c1O | 100 | – | – | – | 10 | 1000 | – |
| COc1cc([C@@H]2c3cc4c(cc3[C@@H](Nc3ccc([N+](=O)[O-])cc3)[C@H]3COC(=O)[C@H]23)OCO4)cc(OC)c1O | < 1.28 | – | – | – | 55.8 | 70 | – |
| COc1cc([C@@H]2c3cc4c(cc3[C@@H](Nc3ccc(F)cc3)[C@H]3COC[C@H]23)OCO4)cc(OC)c1O | 120 | – | – | – | 12.5 | 1500 | – |
| COc1cc([C@@H]2c3cc4c(cc3C(=O)[C@H]3COC(=O)[C@H]23)OCO4)cc(O)c1O | – | – | 3000 | – | 3 | 9000 | – |
| COc1cc([C@@H]2c3cc4c(cc3[C@@H](Sc3ccc(O)cc3)[C@H]3COC(=O)[C@H]23)OCO4)cc(OC)c1O | 800 | – | – | – | 2.1 | 1700 | – |
| COc1cc2c(cc1OC)[C@@H](Nc1ccc(F)cc1)[C@H]1COC(=O)[C@@H]1[C@@H]2c1cc(OC)c(O)c(OC)c1 | < 1 | – | – | – | > 166 | 166 | – |
| COc1cc([C@@H]2c3cc4c(cc3[C@@H](Oc3ccc(F)cc3)[C@H]3COC(=O)[C@H]23)OCO4)cc(OC)c1O | 450 | – | – | – | 1.8 | 800 | – |
| CCS[C@@H]1c2cc3c(cc2[C@@H](c2cc(OC)c(O)c(OC)c2)[C@H]2C(=O)OC[C@@H]21)OCO3 | – | Not Active | – | – | – | 1900 | – |
| CCN(CC)[C@@H]1c2cc3c(cc2[C@@H](c2cc(OC)c(O)c(OC)c2)[C@H]2C(=O)OC[C@@H]21)OCO3.Cl | – | No supperssion | – | – | – | > 100000 | – |
| COc1cc([C@@H]2c3cc4c(cc3C(=O)[C@H]3COC(=O)[C@H]23)OCO4)cc(OC)c1O | 800 | – | – | – | 2.1 | 1700 | – |
| CCN(CC)CCN[C@@H]1c2cc3c(cc2[C@@H](c2cc(OC)c(O)c(OC)c2)[C@H]2C(=O)OC[C@@H]21)OCO3 | 10000 | – | – | – | 0.8 | 8000 | – |
| COc1cc([C@@H]2c3cc4c(cc3[C@@H](O)[C@H]3COC(=O)[C@H]23)OCO4)cc(N)c1N | 1700 | – | – | – | 3.9 | 6600 | – |
| COc1cc([C@@H]2c3cc4c(cc3[C@@H](Nc3ccc(F)cc3)[C@H]3COC(=O)[C@H]23)OCO4)cc(OC)c1OC | 450 | – | – | – | 3.3 | 1500 | – |
| COc1cc([C@@H]2c3cc4c(cc3[C@@H](O)[C@H]3COC(=O)[C@H]23)OCO4)cc(OC)c1O [4'-DEMETHYLEPIPODOPHYLLOTOXIN] | – | Not Active | – | – | – | 70 | – |
| COc1cc([C@@H]2c3cc4c(cc3[C@H](O)[C@H]3COC(=O)[C@H]23)OCO4)cc(OC)c1OC [PODOFILOX] | – | – | – | – | – | – | Toxic |
| Cc1cn([C@H]2C[C@H](N=[N+]=[N-])[C@@H](CO)O2)c(=O)[nH]c1=O [ZIDOVUDINE] | 9 | – | – | – | – | 500000 | – |
